This note sets out measurements from PubChem BioAssay AID2305 (GlaxoSmithKline (GSK), 2010).

Where “and” joins values, the source holds several entries; their conditions need not be identical. Equal entries are not always repeated.

The test system of the assay is P. falciparum 3D7 growth, pLDH absorbance. Kind of assay: blood-stage malaria parasite growth potency – strain 3D7, dose response (AID 2305).
As usually defined, the IC50 is the concentration needed to halve the response being measured. Higher therefore signals lower potency. `O=C(Nc1cccc(-c2nn3ncccc3c2-c2ccnc(Nc3cccnc3)n2)c1)c1c(F)cccc1F` had an IC50 of 530 nM.
The molecule `COc1ccc(Nc2nccc(NCC(O)c3ccc(C(F)(F)F)cc3)n2)cc1` (centres undefined) returned an IC50 of 550 nM.
`FC(F)(F)c1cnc(Sc2nnc(-c3ccncc3)o2)c(Cl)c1` had an IC50 of 270 nM.
`CNC(=O)c1ccc2nc(C3CC3)n(CC3CCN(S(=O)(=O)c4cccc(Cl)c4)CC3)c2c1` gave an IC50 of 650 nM.
Turning to `CCC(C)(C)C1CCc2nc(N)nc(N)c2C1` (centres undefined), the IC50 stood at 10 nM.
For `Cc1cccc2[nH]c(-c3cccc(-c4ccc(NC(=O)NCc5cccc(F)c5)cc4)c3)nc12`, the IC50 was found to be 240 nM.
Next, `CC(C)Sc1nc2c(c(=O)n1CCc1ccccc1)C1(CCCCC1)Cc1ccccc1-2`: 1870 nM; `O=C(/C=C/c1ccc(Cl)c(Cl)c1)NCCCCCN1CCC(NC(=O)Nc2cccc(C(F)(F)F)c2)CC1`: 700 nM; `O=C(Nc1ccc2c(c1)CN(Cc1ccc(N3CCCC3)o1)CCC2)c1cncs1`: 1570 nM.
On to `Cc1ccc2[nH]cc(C3CCN(CC4CCC(NC(=O)/C=C/c5ccc(Cl)c(Cl)c5)CC4)CC3)c2c1` (centres undefined), for which the IC50 was 840 nM and 550 nM.
The figure for `CN1CCCN(Cc2ccc(-c3ccc(NC(=O)c4ccc(Cl)cc4)cc3)cc2)CC1` is 900 nM; for `Cc1cccc2[nH]c(-c3cccc(-c4ccc(NC(=O)Nc5ccsc5)cc4)c3)nc12` it is 120 nM; for `O=S(=O)(c1cc(Cl)sc1Cl)N(CCC(O)(C(F)(F)F)C(F)(F)F)Cc1cccc(O)c1` it is 740 nM.
For `COc1ccc2nccc([C@@H](O)CN3CCC(NCCOc4ccncc4)CC3)c2c1`, the 50% inhibitory concentration (IC50) was 690 nM.
Molecule `CCN1CCC(N(Cc2ccc(-c3ccc(C(F)(F)F)cc3)o2)C(=O)Cn2c(CCc3cccc(F)c3F)nc(=O)c3ccccc32)CC1` came in with an IC50 of 1140 nM.
Consider `c1ccc(Oc2ccc(Nc3nc(NCCc4cnc[nH]4)nc(NC4CCCC4)n3)cc2)cc1`, for which the 50% inhibitory concentration (IC50) came to 1030 nM.
Consider `CCOc1ccc(C(=O)N2CCOC(CCN3CCC(c4ccccc4)CC3)(c3ccc(Cl)c(Cl)c3)C2)cc1` (centres undefined), for which the IC50 came to 850 nM.
The molecule `O=C1CCCN1CCCNCc1cccc(-c2cccc(-c3nc4ccc(F)cc4[nH]3)c2)c1` came in with an IC50 of 600 nM.
Next, `Cc1ccc(-c2ccn(Cc3ccc(OCc4ccccc4)cc3)n2)cn1` (tested in a mixture with another compound): 670 nM; `COc1cc(CCNc2nc(NCc3ccccc3-c3ccccc3)nc(N3CCC(N)CC3)n2)ccc1O`: 820 nM; `Cc1ccc2c(=O)cc(CCc3cccc(F)c3F)n(CC(=O)N(Cc3ccc(-c4ccc(C(F)(F)F)cc4)cc3)C3CCN(C)CC3)c2n1`: 1260 nM.
Next, `COc1cccc(C(=O)Nc2ccc(Nc3nc(C)cc(N(C)C)n3)cc2)c1`: 940 nM; `CC(C)CC(=O)Nc1cc(=O)[nH]c2nc(-c3ccccc3)nn12`: 350 nM.
`CNc1cc(-c2ccc3ccnc(N)c3c2)nc(N)n1` returned an IC50 of 120 nM.
Molecule `COc1ccc2nccc(NC(=O)OC3CCC(NCc4ccc5c(n4)NC(=O)CS5)CC3)c2c1` (centres undefined) displayed an IC50 of 920 nM.
For the molecule `O=C(NCc1ccccc1)c1ncn(CCCN2CCC(N3CCCC3)CC2)c1-c1ccc(Cl)c(Cl)c1`, the IC50 was 1120 nM.
Next, `Cc1ccc(NC(=O)N2CCCN(CCCCCNC(=O)/C=C/c3ccc(Cl)c(Cl)c3)CC2)cc1`: 760 nM.
Turning to `COc1ccc(-c2cc(-c3nc4ccc(CN)cc4[nH]3)c(=O)n(C)c2)cc1OC`, the IC50 was found to be 1400 nM.
Molecule `Cc1nc2ccc(F)cc2n1C1CCN(C(=O)Cc2ccc(F)c(F)c2)CC1` registered a half-maximal inhibitory concentration (IC50) of 1410 nM.
Molecule `COc1cccc(CNC[C@@H](O)[C@H](Cc2ccccc2)NC(=O)c2cc3c4c(c2)c(C(C)C)cn4CCS(=O)(=O)N3C)c1` registered a half-inhibitory concentration (IC50) of 150 nM.
The figure for `CCCC(C)NC[C@@H](O)[C@H](Cc1ccccc1)NC(=O)c1cc(NCC)cc(N2CCCCS2(=O)=O)c1` (some centres undefined) is 160 nM; for `S=C(NCCCCCN1CCC(c2c[nH]c3ccccc23)CC1)Nc1cc(Cl)cc(Cl)c1` it is 870 nM; for `CN(C)CCOc1ccc(N2CCN(CCCCNC(=O)c3ccc(NC(=O)c4ccc(Cl)cc4)cc3)CC2)cc1` it is 830 nM.
Take `C[C@@H](NC(=O)c1nn(-c2ccc(Cl)cc2)c(=O)c2ccccc12)C(C)(C)C`: the IC50 is 1120 nM.
Regarding `CCN(CC)CCN(Cc1ccc(-c2ccc(C(F)(F)F)cc2)nc1)C(=O)Cn1c(SCc2ccc(F)cc2)nc(=O)c2sccc21`, the IC50 amounted to 840 nM.
In turn, `Cc1cc2nc(-c3ccc(OCC(=O)NCc4ccc(C(C)(C)C)cc4)cc3)[nH]c2cc1C` had a 50% inhibitory concentration (IC50) of 1060 nM.
Molecule `O=C(/C=C/c1ccc(Cl)c(Cl)c1)NCC(CCCN1CCC(c2c[nH]c3ccccc23)CC1)c1ccccc1` (centres undefined) gave an IC50 of 810 nM.
For `COc1ccc2nccc([C@@H](O)CN3CCC(NC(=O)c4ccc(Cl)c([N+](=O)[O-])c4)CC3)c2c1`, the half-maximal inhibitory concentration (IC50) was 950 nM.
Turning to `O=C(NC1CCN(CC2(c3ccc(Cl)cc3)CCCCC2)CC1)c1ccn[nH]1`, the IC50 was found to be 80 nM.
`COc1ccc2nccc(N3CCN(CCNCc4ccc5c(n4)NC(=O)CO5)CC3)c2n1` yielded an IC50 of 880 nM.
Regarding `c1ccc(CNCc2cccc(-c3cccc(-c4nc5ccccc5[nH]4)c3)c2)cc1`, the IC50 stood at 570 nM.
On to `CS(=O)(=O)NCCCNCc1ccc(-c2ccc(-c3nc4ccc(C(F)(F)F)cc4[nH]3)s2)cc1`, for which the 50% inhibitory concentration (IC50) came out at 510 nM.
Consider `N#Cc1ccc(-c2ccc(C(=O)NCCCCN3CCC(c4cn(CCO)c5ccccc45)CC3)cc2)cc1`, for which the concentration for half-maximal inhibition (IC50) is 950 nM.
`CC(C)(C)c1ccc(CN2CCC(NC(=O)c3ccc(-c4cccc(Cl)c4)s3)CC2)cc1`: the half-inhibitory concentration (IC50) was 1070 nM.
`Cc1cccc2[nH]c(-c3cccc(-c4ccc(NC(=O)Cc5cnc[nH]5)cc4)c3)nc12` had an IC50 of 690 nM.
`O=C1C([N+](=O)[O-])=C(O)c2cccc(F)c21` had an IC50 of 150 nM.
Next, `CN(Cc1ccccc1)C(=O)c1nn(CCCN2CCC(N3CCCC3)CC2)cc1-c1ccc(Cl)c(Cl)c1`: 770 nM; `CCN1CCC(N2CCC(C(=O)Nc3cccc(-c4cccc(Cl)c4)c3)CC2)CC1`: 1080 nM.
`COc1ccccc1-c1nc2c(ccc3nc(N)nc(N)c32)[nH]1` displayed an IC50 of 180 nM.
Next, `COc1ccc(CN(C)C(=O)CCNS(=O)(=O)c2ccc3c(c2)OCCCO3)cc1F`: 660 nM; `N#Cc1ccc2c(c1)CCN(CCC1CCC(NC(=O)c3cc4cccc(Cl)c4[nH]3)CC1)CC2` (centres undefined): 580 nM; `COc1cccc(CNC[C@@H](O)[C@H](Cc2ccccc2)NC(=O)c2cc(C(C)C)cc(N3CCCC3=O)c2)c1`: 950 nM.
Regarding `CN(C)CC1c2[nH]c3ccccc3c2CCN1C(=O)Nc1ccc(Cl)c(Cl)c1` (centres undefined), the half-maximal inhibitory concentration (IC50) was 1210 nM.
`COc1ccc(CCN(C)CCCOc2ccc(NC(=O)COc3cccc4sc5ccccc5c(=O)c34)cc2)cc1OC` returned an IC50 of 460 nM.
The figure for `CC(C)c1cc(Oc2c(I)cc(CCN=C(N)N)cc2I)ccc1O` is 790 nM; for `O=[N+]([O-])c1cccc(CNC2CCN(Cc3ccc(-c4ccccc4)cc3)CC2)c1` it is 230 nM; for `Oc1ccc(CN2CCN(CCOC(c3ccc(F)cc3)c3ccc(F)cc3)CC2)cc1Cl` it is 940 nM.
The figure for `CN(C)Cc1ccc(-c2cccc(NC(=O)c3cccc(Cl)c3)c2)cc1` is 690 nM; for `c1ccc(CCNc2ccnc(Nc3ccc4cn[nH]c4c3)n2)cc1` it is 470 nM.
`Cc1[nH]c2ccccc2c1C1=CCN(CCCCC2(C)C(=O)Nc3cccc(F)c32)CC1` (centres undefined) displayed an IC50 of 360 nM.
The figure for `O=C(NCCN1CCCC1)c1ccc(-c2ccc(-c3nc4ccccc4[nH]3)s2)cc1` is 940 nM; for `Cc1cccc2[nH]c(-c3cccc(-c4ccc(NC(=O)CS(C)(=O)=O)cc4)c3)nc12` it is 1000 nM; for `NC1CCN(Cc2ccc(-c3ccc(-c4nc5ccccc5[nH]4)cc3)cc2)C1` (centres undefined) it is 150 nM.
On to `Fc1ccc2nc(-c3cccc(-c4cccc(CNCc5cnn(-c6ccccc6)n5)c4)c3)[nH]c2c1`, for which the IC50 stood at 970 nM.
As for `CN1CCN(c2nsc3ccc(-c4ccc(NC(=O)Nc5ccccc5)cc4)cc23)CC1`, the IC50 was 180 nM.
Next, `CCOc1ccc(Cc2c(C)nc3nc(N)nc(N)c3c2C)cc1`: 1060 nM.
As for `O=c1c2ccc(Sc3ccccn3)cc2n(-c2ccccc2)c2cc(Sc3ccccn3)ccc12`, the concentration for half-maximal inhibition (IC50) came to 200 nM.
In turn, `CCc1ccc(C2CCN(CCCCNC(=O)c3ccc(-c4ccc(C#N)cc4)cc3)CC2)c(OCCO)c1` came in with an IC50 of 940 nM.
The molecule `CN(CCCCCN1CCC(NC(=O)Nc2ccc(C(F)(F)F)cc2)C1)C(=O)/C=C/c1ccc(Cl)c(Cl)c1` (centres undefined) showed an IC50 of 770 nM.
Take `c1ccc(C(c2ccccc2)N2CCN(C(c3cccnc3)c3nnnn3C3CCCC3)CC2)cc1` (centres undefined): the IC50 was determined as 1080 nM.
Molecule `O=C(Nc1ccc(Cl)c(C(F)(F)F)c1)NC1CCN(CCCCCNC(=O)[C@@H]2C[C@H]2c2ccc(Cl)c(Cl)c2)CC1` displayed an IC50 of 680 nM.
As for `Cc1csc(-c2ncc(OC[C@@H](N)Cc3ccccc3)cc2-c2ccc3n[nH]c(C)c3c2)c1`, the IC50 was determined as 840 nM.
Next, `O=C(NC1CC1)c1cnc(N2CCC(Oc3ccc(Cl)cc3)CC2)c(Cl)c1`: 1090 nM.
`O=C(/C=C/c1ccc(Cl)cc1)NCCCCCN1CCC(C(=O)Nc2ccc(Cl)cc2)CC1` yielded an IC50 of 830 nM.
`NCc1ccc(CNCc2cccc(-c3cccc(-c4nc5ccc(F)cc5[nH]4)c3)c2)cc1` registered a 50% inhibitory concentration (IC50) of 310 nM.
Next, `COc1ccc(-c2nccc(NC(N)=NCc3ccccc3)n2)cc1`: 670 nM; `CN(C)CCOc1ccc(-c2cc(-c3ccc(Cl)c(O)c3)c(-c3ccnc(N)n3)o2)cc1`: 1320 nM; `O=C(N[C@H]1CCN(Cc2ccc(OCCN3CCNCC3)c(Br)c2)C1)c1ccc(Cl)c(Cl)c1`: 480 nM.
Turning to `Cc1cccc(Oc2cccc3[nH]nc(N)c23)c1`, the IC50 was determined as 1040 nM.
The molecule `COc1ccc(CNC(=O)NC2CCN(c3ccnc(Nc4ccc(F)cc4)n3)CC2)cc1` displayed an IC50 of 1050 nM.
Regarding `CC(C)c1cccc(OCC2CCN(c3ccc(C(=O)Nc4ccccc4)cn3)CC2)c1`, the IC50 was determined as 700 nM.
`Cc1nnsc1C(=O)Nc1cccc(-c2cccc(-c3nc4ccccc4[nH]3)c2)c1` yielded an IC50 of 440 nM.
With `CCCCCCOc1ccc(C(=O)NCCCC2CCN(CCCCCNC(=O)C=Cc3ccc(Cl)c(Cl)c3)CC2)cc1`, the IC50 came out at 850 nM.
In turn, `Cc1ccc(-c2nc3ccccc3o2)cc1NCc1cc(Cc2ccccc2)ccc1O` displayed an IC50 of 1030 nM.
